According to ChEMBL document CHEMBL3124925, “Further constituents of Galianthe thalictroides (Rubiaceae) and inhibition of DNA topoisomerases I and IIα by its cytotoxic β-carboline alkaloids” (Bioorg Med Chem Lett, 2014):
Values after ≈ are worked out from the molar mass of the structure shown. Active and inactive are the calls of the source. The rule behind the calls is not given here.

Columns and labels:
[1] = target: DNA topoisomerase 2-alpha (Homo sapiens) (UniProt P11388); experiment: Inhibition of recombinant human top2 alpha-mediated kDNA decatenation compound added post enzyme-DNA incubation by agarose gel electrophoresis
Chain of DNA topoisomerase 2-alpha (Homo sapiens) (P11388 whole entry): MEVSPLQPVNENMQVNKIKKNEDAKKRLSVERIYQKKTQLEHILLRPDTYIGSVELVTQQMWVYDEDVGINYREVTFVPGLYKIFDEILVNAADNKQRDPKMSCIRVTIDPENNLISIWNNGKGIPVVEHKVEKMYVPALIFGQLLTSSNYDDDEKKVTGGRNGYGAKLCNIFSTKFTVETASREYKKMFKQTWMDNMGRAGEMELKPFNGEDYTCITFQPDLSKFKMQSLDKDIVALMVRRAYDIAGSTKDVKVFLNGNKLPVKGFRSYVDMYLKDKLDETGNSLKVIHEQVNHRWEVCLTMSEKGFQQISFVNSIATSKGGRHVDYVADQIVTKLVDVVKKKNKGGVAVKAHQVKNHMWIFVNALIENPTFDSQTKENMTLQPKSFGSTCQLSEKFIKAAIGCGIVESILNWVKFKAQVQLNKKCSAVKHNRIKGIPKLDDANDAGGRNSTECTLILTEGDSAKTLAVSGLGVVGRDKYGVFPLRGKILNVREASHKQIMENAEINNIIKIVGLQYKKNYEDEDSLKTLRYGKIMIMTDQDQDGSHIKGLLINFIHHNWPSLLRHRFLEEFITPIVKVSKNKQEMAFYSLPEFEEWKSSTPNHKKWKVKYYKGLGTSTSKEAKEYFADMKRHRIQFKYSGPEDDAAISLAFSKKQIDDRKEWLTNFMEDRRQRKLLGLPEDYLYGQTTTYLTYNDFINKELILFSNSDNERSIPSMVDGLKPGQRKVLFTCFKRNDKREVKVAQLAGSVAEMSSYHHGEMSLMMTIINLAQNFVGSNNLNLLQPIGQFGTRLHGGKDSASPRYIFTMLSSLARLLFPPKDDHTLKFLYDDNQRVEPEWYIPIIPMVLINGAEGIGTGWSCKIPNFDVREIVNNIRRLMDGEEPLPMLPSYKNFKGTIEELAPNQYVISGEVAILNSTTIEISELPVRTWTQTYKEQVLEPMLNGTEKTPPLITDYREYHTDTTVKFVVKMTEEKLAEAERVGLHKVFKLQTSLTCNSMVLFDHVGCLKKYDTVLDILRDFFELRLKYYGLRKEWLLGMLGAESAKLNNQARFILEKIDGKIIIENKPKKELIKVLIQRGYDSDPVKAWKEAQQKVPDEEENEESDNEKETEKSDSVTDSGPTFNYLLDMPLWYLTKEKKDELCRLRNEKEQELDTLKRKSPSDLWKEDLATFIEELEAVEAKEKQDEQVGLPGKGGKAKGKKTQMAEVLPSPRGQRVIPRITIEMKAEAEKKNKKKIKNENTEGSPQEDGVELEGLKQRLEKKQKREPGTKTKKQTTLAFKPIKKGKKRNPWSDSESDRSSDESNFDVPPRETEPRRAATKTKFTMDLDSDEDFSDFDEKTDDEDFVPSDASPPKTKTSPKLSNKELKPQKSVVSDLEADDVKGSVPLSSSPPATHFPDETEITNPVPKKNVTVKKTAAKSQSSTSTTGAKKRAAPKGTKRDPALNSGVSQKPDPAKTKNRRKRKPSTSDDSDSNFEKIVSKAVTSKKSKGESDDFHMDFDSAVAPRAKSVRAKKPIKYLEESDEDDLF

MCF7 = experiment: Cytotoxicity against human MCF7 cells assessed as growth inhibition by SRB assay; type: functional, cell-based
[2] = target: T1, DNA topoisomerase 1 (Homo sapiens) (UniProt P11387); experiment: Inhibition of recombinant human DNA top1-mediated relaxation of pBR322 plasmid at 1 uM after 30 mins by agarose gel electrophoresis
T1 sequence (whole entry): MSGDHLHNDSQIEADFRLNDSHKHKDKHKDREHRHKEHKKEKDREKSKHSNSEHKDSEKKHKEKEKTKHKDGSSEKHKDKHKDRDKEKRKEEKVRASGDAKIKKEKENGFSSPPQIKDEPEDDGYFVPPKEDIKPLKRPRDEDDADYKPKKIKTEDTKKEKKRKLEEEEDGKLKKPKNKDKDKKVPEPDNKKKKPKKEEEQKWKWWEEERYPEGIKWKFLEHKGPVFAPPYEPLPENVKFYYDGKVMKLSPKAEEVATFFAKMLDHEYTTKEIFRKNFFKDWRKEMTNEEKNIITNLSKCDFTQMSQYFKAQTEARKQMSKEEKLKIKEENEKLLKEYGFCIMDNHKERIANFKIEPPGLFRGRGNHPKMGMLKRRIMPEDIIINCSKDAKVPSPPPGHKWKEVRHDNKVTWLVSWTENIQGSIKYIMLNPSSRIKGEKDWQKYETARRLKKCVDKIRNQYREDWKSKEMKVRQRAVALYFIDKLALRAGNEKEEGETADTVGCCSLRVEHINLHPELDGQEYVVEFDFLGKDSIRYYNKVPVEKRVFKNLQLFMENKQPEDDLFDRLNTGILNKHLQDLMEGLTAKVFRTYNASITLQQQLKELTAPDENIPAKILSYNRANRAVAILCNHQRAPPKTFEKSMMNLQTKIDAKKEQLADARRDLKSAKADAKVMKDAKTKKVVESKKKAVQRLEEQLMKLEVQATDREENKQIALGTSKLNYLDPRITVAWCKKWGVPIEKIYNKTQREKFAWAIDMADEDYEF

[3] = target: DNA topoisomerase 2-alpha (Homo sapiens) (UniProt P11388); experiment: Inhibition of recombinant human top2 alpha-mediated kDNA decatenation compound added post enzyme-DNA incubation by agarose gel electrophoresis in presence of DTT
[4] = target: DNA topoisomerase 2-alpha (Homo sapiens) (UniProt P11388); experiment: Inhibition of recombinant human top2 alpha-mediated kDNA decatenation at 1 uM after 30 mins by agarose gel electrophoresis
B16-F10 = experiment: Cytotoxicity against mouse B16F10 cells assessed as growth inhibition by SRB assay; type: functional
786-0 = experiment: Cytotoxicity against human 786-0 cells assessed as growth inhibition by SRB assay; type: functional, cell-based
UACC-62 = experiment: Cytotoxicity against human UACC62 cells assessed as growth inhibition by SRB assay; type: functional, cell-based
[5] = target: T1, DNA topoisomerase 1 (Homo sapiens); experiment: Inhibition of recombinant human DNA top1-mediated relaxation of pBR322 plasmid at 100 uM after 30 mins by agarose gel electrophoresis
[6] = target: DNA topoisomerase 2-alpha (Homo sapiens) (UniProt P11388); settings: 100 uM
Description: Inhibition of recombinant human top2 alpha-mediated kDNA decatenation at 100 uM after 30 mins by agarose gel electrophoresis

[7] = target: DNA topoisomerase 2-alpha (Homo sapiens) (UniProt P11388); experiment: Inhibition of recombinant human top2 alpha-mediated kDNA decatenation at 25 uM after 30 mins by agarose gel electrophoresis
[8] = target: T1, DNA topoisomerase 1 (Homo sapiens); experiment: Inhibition of recombinant human DNA top1-mediated relaxation of pBR322 plasmid at 25 uM after 30 mins by agarose gel electrophoresis

| Structure (SMILES) | inhibition [1] | GI50 (MCF7) | inhibition [3] | GI50 (B16-F10) | GI50 (786-0) | GI50 (UACC-62) | further results |
| --- | --- | --- | --- | --- | --- | --- | --- |
| COc1cccc2[nH]c3c([C@H]4[C@H](C(C)(C)O)CC[C@]4(C)O)nccc3c12 | Active | 3 µg/mL (≈ 8.46 µM) | Active | 19.5 µg/mL (≈ 55 µM) | 3 µg/mL (≈ 8.46 µM) | 2.5 µg/mL (≈ 7.05 µM) | inhibition [2]: Active; inhibition [4]: Active |
| COc1cccc2c1C(=O)c1c(O)c3c(c(O)c1C2=O)C[C@@](O)(C(=O)CO)C[C@@H]3O[C@H]1C[C@H](N)[C@H](O)[C@H](C)O1.Cl [DOXORUBICIN HYDROCHLORIDE] | – | 0.23 µg/mL | – | 0.22 µg/mL | 0.43 µg/mL | 0.25 µg/mL | – |
| CCc1c2c(nc3ccc(OC(=O)N4CCC(N5CCCCC5)CC4)cc13)-c1cc3c(c(=O)n1C2)COC(=O)[C@]3(O)CC | – | – | – | – | – | – | inhibition [5]: Active |
| COc1cc([C@@H]2c3cc4c(cc3[C@@H](O[C@@H]3O[C@@H]5CO[C@@H](C)O[C@H]5[C@H](O)[C@H]3O)[C@H]3COC(=O)[C@H]23)OCO4)cc(OC)c1O | Active | – | Active | – | – | – | inhibition [6]: Active |
| COc1cccc2[nH]c3c([C@H]4[C@H](C(C)(C)O)CC[C@@]4(O)CO)nccc3c12 | Active | – | Active | – | – | – | inhibition [7]: Active; IC50 (MCF7): 1.8 µg/mL (≈ 4.86 µM); IC50 (786-0): 0.22 µg/mL (≈ 0.594 µM); IC50 (UACC-62): 1.7 µg/mL (≈ 4.59 µM); inhibition [8]: Active |
